Measured values published in ChEMBL document CHEMBL1143560, “Discovery of bicycloalkyl urea melanin concentrating hormone receptor antagonists: orally efficacious antiobesity therapeutics” (J Med Chem, 2005).

Tests used:
[1] = target: Melanin-concentrating hormone receptor 2 (Homo sapiens, UniProt Q969V1); experiment: Inhibition constant for human Melanin concentrating hormone receptor 2
[2] = target: Melanin-concentrating hormone receptor 1 (Mus musculus, UniProt Q8JZL2); experiment: Inhibition constant for mouse Melanin concentrating hormone receptor 1
Melanin-concentrating hormone receptor 1 (Mus musculus, UniProt Q8JZL2), sequence (Q8JZL2 whole entry): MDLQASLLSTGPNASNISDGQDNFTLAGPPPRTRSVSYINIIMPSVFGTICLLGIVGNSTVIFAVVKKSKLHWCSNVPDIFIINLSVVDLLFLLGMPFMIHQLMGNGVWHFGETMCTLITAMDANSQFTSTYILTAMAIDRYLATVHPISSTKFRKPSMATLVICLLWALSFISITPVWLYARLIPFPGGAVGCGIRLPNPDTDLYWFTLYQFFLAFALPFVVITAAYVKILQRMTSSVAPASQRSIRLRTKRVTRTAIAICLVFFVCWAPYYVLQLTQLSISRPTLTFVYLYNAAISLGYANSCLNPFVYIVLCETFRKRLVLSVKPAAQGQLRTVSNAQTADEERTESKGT

[3] = target: T1, Melanin-concentrating hormone receptor 1 (Homo sapiens, UniProt Q99705); experiment: Inhibition of [Ca2+] influx mediated by human Melanin concentrating hormone receptor 1 expressing cells; assay type: functional
T1 sequence (Q99705 whole entry): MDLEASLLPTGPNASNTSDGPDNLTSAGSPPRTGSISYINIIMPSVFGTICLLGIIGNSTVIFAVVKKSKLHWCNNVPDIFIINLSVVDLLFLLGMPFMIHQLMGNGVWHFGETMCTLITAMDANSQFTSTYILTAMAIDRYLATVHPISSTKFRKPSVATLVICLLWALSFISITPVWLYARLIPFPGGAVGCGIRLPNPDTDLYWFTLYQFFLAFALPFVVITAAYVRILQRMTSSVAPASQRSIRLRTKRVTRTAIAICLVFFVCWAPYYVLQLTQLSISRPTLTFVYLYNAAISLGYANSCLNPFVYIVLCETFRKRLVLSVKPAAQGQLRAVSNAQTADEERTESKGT

[4] = target: T1, Melanin-concentrating hormone receptor 1; experiment: Inhibition constant for human Melanin concentrating hormone receptor 1
Mus musculus [5] = experiment: In vivo efficacy of compound for food intake by the mice in 2 h after peroral administration at 30 mpk expressed as percent of vehicle; assay type: functional
Mus musculus [6] = experiment: In vivo efficacy of compound for food intake by the mice in 6 hr after peroral administration at 30 mpk expressed as percent of vehicle; assay type: functional
Mus musculus [7] = experiment: In vivo efficacy of compound for food intake by the mice in 24 hr after peroral administration at 30 mpk expressed as percent of vehicle; assay type: functional
[8] = target: Melanin-concentrating hormone receptor 1 (Mus musculus) (UniProt Q8JZL2); experiment: Ex vivo inhibition of MCH-ADO binding to Melanin concentrating hormone receptor 1 in mice (n=3) 6 hr after 30 mg/kg peroral dose; assay type: organism-based; parameters: dose 30 mg/kg; details: at 30 mg/kg
Melanin-concentrating hormone receptor 1 (Mus musculus), sequence (Q8JZL2 whole entry): as the sequence (Q8JZL2 whole entry) above

Rattus norvegicus [9] = experiment: Oral efficacy for reduction in body weight of rats after 4 days of administration; Range is 15-20%; assay type: functional
Mus musculus [10] = experiment: Reduction in milk consumption by fasted mouse after oral administration
[11] = Bioavailability of compound in rats (n= 3) after oral administration at 10 mpk; assay type: ADME, organism-based; details: rat, in vivo, 10 mg/kg
[12] = Steady state volume distribution of compound in rats (n= 3) after oral administration at 10 mpk; assay type: ADME, organism-based; details: rat, in vivo, 10 mg/kg
[13] = target: Melanin-concentrating hormone receptor 1 (Mus musculus) (UniProt Q8JZL2); experiment: Ex vivo inhibition of MCH-ADO binding to Melanin concentrating hormone receptor 1 in mice (n=3) 24 hr r after 30 mg/kg peroral dose; assay type: organism-based; parameters: dose 30 mg/kg; details: at 30 mg/kg
[14] = Clearance of compound in rats (n= 3) after intravenous administration at 10 mpk; assay type: ADME, organism-based; details: rat, in vivo, 10 mg/kg
[15] = Half life of compound in rats (n= 3) after intravenous administration at 10 mpk; assay type: ADME, organism-based; details: rat, in vivo, 10 mg/kg
[16] = Area under concentration time curve (from 0-24 hr) for compound in rats (n= 3) after oral administration at 10 mpk; assay type: ADME; parameters: dose 10 mpk, time < 24 hr, route oral; details: rat, in vivo, 10 mg/kg
Rattus norvegicus [17] = experiment: Suppression of Melanin concentrating hormone receptor-stimulated food intake in lean rats after 30 mg/kg dose; assay type: functional
Rattus norvegicus [18] = experiment: Reduction of food intake by rats after 6 hr of administration was measured; assay type: functional

Melanin-concentrating hormone receptor 2, sequence (Q969V1 whole entry): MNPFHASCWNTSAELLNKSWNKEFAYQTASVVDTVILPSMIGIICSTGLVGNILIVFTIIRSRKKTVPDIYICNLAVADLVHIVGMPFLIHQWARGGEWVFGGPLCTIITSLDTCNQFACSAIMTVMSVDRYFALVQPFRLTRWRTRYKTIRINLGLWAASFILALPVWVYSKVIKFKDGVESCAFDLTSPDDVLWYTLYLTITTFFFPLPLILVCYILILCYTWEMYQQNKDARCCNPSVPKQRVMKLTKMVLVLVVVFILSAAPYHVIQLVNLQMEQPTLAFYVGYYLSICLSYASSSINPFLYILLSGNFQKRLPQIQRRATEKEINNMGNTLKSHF

## N#Cc1cccc([C@]23CC[C@@H](N(CCN4CC[C@@H](O)C4)C(=O)Nc4ccc(F)c(Cl)c4)CC2C3)c1 (some centres not stated)
[1]
  Ki: > 3000 nM
[2]
  Ki: 10.7 nM

## N#Cc1cccc(C2=CCC(N(CCN3CCCC3)C(=O)Nc3ccc(F)c(Cl)c3)CC2)c1 (configuration not stated)
[3]
  Kb: 9 nM
[4]
  Ki: 3 nM
[1]
  Ki: > 3000 nM

## N#Cc1ccc([C@]23CC[C@@H](N(CCN4CCCC4)C(=O)Nc4cc(Cl)cc(Cl)c4)[C@H]2C3)cc1
Mus musculus [5]
  Efficacy: 78.4%
Mus musculus [6]
  Efficacy: 86.6%
Mus musculus [7]
  Efficacy: 94.7%
[8]
  inhibition: 76%
[4]
  Ki: 18 nM
[1]
  Ki: > 3000 nM

## CN(C)c1nc(N[C@H]2CC[C@@H](NC(=O)c3ccc(F)c(F)c3)CC2)nc2ccccc12
Rattus norvegicus [9]
  Efficacy: 20%

## CC(=O)N(C)C1CCN(c2ccc(NC(=O)N3CCC(c4ccc(Cl)cc4)CC3)cc2)C1 (configuration not stated)
Mus musculus [10]
  Reduction: 64%

## CN1CCN(CCCCN(C(=O)Nc2ccc(F)c(C(F)(F)F)c2)[C@@H]2CC[C@]3(c4ccc(C#N)cc4)C[C@H]23)CC1
[11]
  bioavailability: 27%
Mus musculus [5]
  Efficacy: 77.3%
Mus musculus [6]
  Efficacy: 76%
Mus musculus [7]
  Efficacy: 78.1%
[3]
  Kb: 1.9 nM
[12]
  Vd(ss): 5.6 L/kg
[8]
  inhibition: 99%
[13]
  inhibition: 58%
[14]
  clearance: 21.8 mL/min/kg
[15]
  half-life: 4 h
[4]
  Ki: 2.7 nM
[1]
  Ki: > 3000 nM
[2]
  Ki: 3 nM
[16]
  AUC: 2140 ng·h/mL

## N#Cc1cccc([C@H]2CC[C@H](N(CCN3CC[C@@H](O)C3)C(=O)Nc3ccc(F)c(C(F)(F)F)c3)CC2)c1
[4]
  Ki: 215 nM
[1]
  Ki: > 3000 nM

## N#Cc1ccccc1[C@]12CC[C@@H](N(CCN3CC[C@@H](O)C3)C(=O)Nc3ccc(F)c(C(F)(F)F)c3)[C@H]1C2
Mus musculus [5]
  Efficacy: 65.7%
Mus musculus [6]
  Efficacy: 68.2%
Mus musculus [7]
  Efficacy: 80.8%
[8]
  inhibition: 81%
[4]
  Ki: 7.1 nM
[1]
  Ki: > 3000 nM

## N#Cc1cccc([C@@]23CC[C@@H](N(CCN4CC[C@@H](O)C4)C(=O)Nc4ccc(F)c(Cl)c4)C[C@@H]2C3)c1
Mus musculus [5]
  Efficacy: 80%
Mus musculus [6]
  Efficacy: 99%
Mus musculus [7]
  Efficacy: 98.6%
[8]
  inhibition: 62%
[13]
  inhibition: 8%
[1]
  Ki: > 3000 nM
[2]
  Ki: 7.8 nM

## N#Cc1cccc(-c2ccc(N(CCN3CC[C@@H](O)C3)C(=O)Nc3ccc(F)c(C(F)(F)F)c3)cc2)c1
[3]
  Kb: 2 nM
[4]
  Ki: 8.9 nM
[1]
  Ki: > 3000 nM
[2]
  Ki: 9.6 nM

## C[C@]1(c2cccc(C#N)c2)CC[C@@H](N(CCN2CC[C@@H](O)C2)C(=O)Nc2ccc(F)c(C(F)(F)F)c2)CC1
[4]
  Ki: > 3000 nM
[1]
  Ki: > 3000 nM

## N#Cc1cccc([C@H]2CC[C@@H](N(CCN3CC[C@@H](O)C3)C(=O)Nc3ccc(F)c(C(F)(F)F)c3)CC2)c1
[4]
  Ki: 2020 nM
[1]
  Ki: > 3000 nM

## C[C@]1(c2cccc(C#N)c2)CC[C@H](N(CCN2CC[C@@H](O)C2)C(=O)Nc2ccc(F)c(C(F)(F)F)c2)CC1
[4]
  Ki: 391 nM
[1]
  Ki: > 3000 nM

## N#Cc1cccc([C@]23CC[C@@H](N(CCN4CC[C@@H](O)C4)C(=O)Nc4ccc(F)c(Cl)c4)C[C@H]2C3)c1
Mus musculus [5]
  Efficacy: 85%
Mus musculus [6]
  Efficacy: 93.6%
Mus musculus [7]
  Efficacy: 94.9%
[8]
  inhibition: 50%
[13]
  inhibition: 13%
[1]
  Ki: > 3000 nM
[2]
  Ki: 5.9 nM

## CN(C)CC1CCc2cc(NC(=O)c3ccc(-c4ccc(F)cc4)cc3)ccc2C1 (configuration not stated)
Rattus norvegicus [17]
  Suppression: >90%

## Cc1cc(N(C)CCN(C)C)nc2ccc(NC(=O)/C=C/c3ccc(OC(F)(F)F)cc3)cc12
Rattus norvegicus [18]
  Reduction: >30%

## N#Cc1cccc([C@@]23CC[C@@H](N(CCN4CC[C@@H](O)C4)C(=O)Nc4ccc(F)c(Cl)c4)CC2C3)c1 (some centres not stated)
[1]
  Ki: > 3000 nM
